B1: ADAM15: ADAM15 (Ad15) polypeptide tested against HSV-1; exact construct not stated (protein, UniProt Q13444 207-863, looked up)
Disintegrin and …: DVVTETKTVELVIVADHSEAQKYRDFQHLLNRTLEVALLLDTFFRPLNVRVALVGLEAWTQRDLVEISPNPAVTLENFLHWRRAHLLPRLPHDSAQLVTGTSFSGPTVGMAIQNSICSPDFSGGVNMDHSTSILGVASSIAHELGHSLGLDHDLPGNSCPCPGPAPAKTCIMEASTDFLPGLNFSNCSRRALEKALLDGMGSCLFERLPSLPPMAAFCGNMFVEPGEQCDCGFLDDCVDPCCDSLTCQLRPGAQCASDGPCCQNCQLRPSGWQCRPTRGDCDLPEFCPGDSSQCPPDVSLGDGEPCAGGQAVCMHGRCASYAQQCQSLWGPGAQPAAPLCLQTANTRGNAFGSCGRNPSGSYVSCTPRDAICGQLQCQTGRTQPLLGSIRDLLWETIDVNGTELNCSWVHLDLGSDVAQPLLTLPGTACGPGLVCIDHRCQRVDLLGAQECRSKCHGHGVCDSNRHCYCEEGWAPPDCTTQLKATSSLTTGLLLSLLVLLVLVMLGASYWYRARLHQRLCQLKGPTCQYRAAQSGPSERPGPPQRALLARGTKQASALSFPAPPSRPLPPDPVSKRLQAELADRPNPPTRPLPADPVVRSPKSQGPAKPPPPRKPLPADPQGRCPSGDLPGPGAGIPPLVVPSRPAPPPPTVSSLYL

Assays:
HSV-1 (KOS) gL86 [1] = test: HSV-1 infection of HeLa cells at MOIs 5, 15 and 25 PFU/cell (Example 6); assay type: cell-based, herpes simplex virus type-1; conditions: virus pre-incubated 180 min, 6 hr
Experimental: HeLa cells were each grown to 100% confluency in 96-well plates. The β-galactosidase-expressing recombinant virus HSV-1 (KOS) HSV-1 gL86 […] was pre-incubated at MOIs of 5 (FIG. 10, panel A), 15 (FIG. 10, panel B) and 25 (FIG. 10, panel C) plaque-forming units per cell (PFU) with VCN (VN), CN or ADAM15 (Ad15) at the concentrations indicated or mock treated with 1 X phosphate saline buffer for 180 min at room temperature. After 6 hr, the cells were washed, permeabilized and incubated with ONPG substrate (3.0 mg/ml). The β-gal enzymatic activity was measured at an optical density of 410 nm (OD 410). Mock treated HSV-1 with PBS was used as a […] control ((+) infected with virus alone; (−) uninfected control).

[2] = tested on: HSV-2 (333 gJ-reporter virus); test: HSV-2 infection of HeLa cells, ONPG assay (Example 4); assay type: cell-based; conditions: virus pre-incubated; starting concentration 1 mg/ml
Experimental: In this experiment different clinical strains of HSV-1 (F, G, and MP strains of HSV-1 [37] at 25 pfu/cell) were either pre-incubated with 1×PBS (control) or with CN at the concentrations indicated in FIG. 8, panel A for 90 min at room temperature. After 90 min of incubation the two pools of viruses were incubated with Nectin-1 receptor expressing CHO Igβ cells that express β-galactosidase upon viral entry as described. The viral infection blocking was measured by ONPG assay (FIG. 8, panel A). Similar experiment was conducted using Lac Z encoded HSV-2 (333 gJ-reporter virus). HSV-2 is a genital herpes virus. […] Each value shown is the mean of three or more determinations (±SD).

HSV-1 (KOS) gL86 [3] = test: HSV-1 infection of HeLa, Vero and 293T cells, virus pre-incubated (Example 3); assay type: cell-based, herpes simplex virus type-1; conditions: HeLa cells; virus 30 pfu/cell pre-incubated 90 min; 6 hr
Experimental: CN blocks herpes simplex virus type-1 (HSV-1) infection of natural target cells. HeLa, Vero and 293T cells were each grown to 100% confluency in 96-well plates. The β-galactosidase-expressing recombinant virus HSV-1 (KOS) HSV-1 gL86 (30 pfu/cell) was pre-incubated with CN at the concentration indicated in FIG. 7 or mock treated with 1 X phosphate saline buffer for 90 min at room temperature. After 6 hr, the cells were washed, permeabilized and incubated with ONPG substrate (3.0 mg/ml). The β-gal enzymatic activity was measured at an optical density of 410 nm (OD 410). Each value shown in FIG. 7 is the mean of three or more determinations (±SD). Mock treated HSV-1 with PBS was used as a control. HSV-1 infection of HeLa (panel A) and Vero and 293T cells (panel B) was blocked by CN.

[4] = tested on: β-galactosidase-expressing recombinant Adenovirus; test: Adenovirus infection of HeLa cells (Example 7); assay type: cell-based; conditions: similar experiments as for CN
Experimental: HeLa cells were infected with a β-galactosidase-expressing recombinant Adenovirus were pre-incubated with CN at (1) the dilution indicated in FIG. 11, panel A (stock concentration 22 nM) or (2) the concentrations indicated in FIG. 11, panel B, or mock treated with 1 X phosphate saline buffer for 90 min at room temperature. After 12 hr, the cells were washed, permeabilized and incubated with ONPG substrate (3.0 mg/ml) for quantitation of β-galactosidase activity expressed from the input viral genome. Positive (Pos) infected with virus alone; Negative (Neg) uninfected control. The enzymatic activity was measured at an optical density of 410 nm (OD 410).

Molecule | HSV-1 infection of HeLa cells, blocking and rank order (β-gal activity, OD 410) (HSV-1 (KOS) gL86 [1]) | HSV-2 infection of HeLa cells (dose response, ONPG assay) [2] | HSV-1 infection (β-gal activity, OD 410) (HSV-1 (KOS) gL86 [3]) | IC50 [4] [µM]
vicrostatin [VCN] | blocked by CN >VCN >ADAM15 | significantly inhibited HSV-2 infection | blocked HSV-1 infection of HeLa cells | 21
B1 | blocked by CN >VCN >ADAM15 |  |  | 

Source: US20130177528A1, “COMPOSITIONS AND METHODS FOR INHIBITING VIRAL INFECTION” (WESTERN UNIVERSITY OF HEALTH SCIENCES, priority 2011, published 2013)
